The data set is described as follows: wn = mass fraction of the nth substance listed. The following applies: 88.35 kPa, Liquid, Pycnometric method.

Numbers after ± are expanded uncertainties.

On to `[Cl-].[K+]` [potassium chloride] + O, for which the mass density – broadly, the mass of a sample divided by its volume – (298.15 K, w1 = 0.2672) is reported as 1180 ± 12 kg/m3 and the mass density (313.15 K, w1 = 0.29) is 1192 ± 12 kg/m3.

The record behind these values is the NIST ThermoML archive (doi:10.1021/acs.jced.8b00081).
